Experimental data published in publication PMC7318697 (2020).

Assays:
[1] = test system: telo23 (DNA, G4) TAGGGTTAGGGTTAGGGTTAGGG; experiment: UV/Vis titration; settings: K+ (100 mM potassium phosphate), pH 7.4, ligand 10 μM; for K d: apparent, independent and equivalent sites
[2] = test system: F21T (DNA, G4) GGGTTAGGGTTAGGGTTAGGG; experiment: FRET melting; settings: 10 mM Li cacodylate, ligand 5 μM, DNA 0.2 μM
[3] = test system: Febr1T (DNA, G4) GGGCAGGGGGTGATGGGGAGGAGCCAGGG; experiment: FRET melting; settings: 10 mM KCl, 90 mM LiCl; 10 mM Li cacodylate; ligand 5 μM; DNA 0.2 μM
[4] = test system: telo23 (DNA, G4) TAGGGTTAGGGTTAGGGTTAGGG; experiment: 1H imino NMR titration; settings: 20 mM potassium phosphate, 70 mM KCl; pH 7.0, 298 K, 90% H2O/10% D2O; DNA 185 μM
[5] = test system: FmycT (DNA, G4) TTGAGGGTGGGTAGGGTGGGTAA; experiment: FRET melting; settings: 1 mM KCl, 99 mM LiCl; 10 mM Li cacodylate; ligand 5 μM; DNA 0.2 μM
[6] = test system: F10T (DNA, hairpin, hexaethylene glycol (HEG) linker between nucleotides 10 and 11) TATAGCTATATATAGCTATA; experiment: FRET melting; settings: 10 mM KCl, 90 mM LiCl; 10 mM Li cacodylate; ligand 5 μM; DNA 0.2 μM

| SMILES | K d [1] [µM] | ΔT m ([2]; 10 mM KCl, 90 mM LiCl) [°C] | ΔT m [3] [°C] | binding [4] | ΔT m [5] [°C] | ΔT m [6] [°C] | binding ([1]; Kd too weak for accurate determination) | ΔT m ([2]; 100 mM NaCl) [°C] |
| --- | --- | --- | --- | --- | --- | --- | --- | --- |
| CN1CCN(CCCNc2ccc3c(c2)/C(=C2\CCc4ccc(NCCCN5CCN(C)CC5)cc42)CC3)CC1 | 70 | 6 | – | – | – | – | – | – |
| C[n+]1ccc(-c2ccc3c(c2)/C(=C2/CCc4ccc(-c5cc[n+](C)cc5)cc42)CC3)cc1 | 70 | – | 9 | yes | – | – | – | – |
| C[n+]1ccc(-c2ccc3c(c2)/C(=C2\CCc4ccc(-c5cc[n+](C)cc5)cc42)CC3)cc1 | – | – | 22 | yes | – | – | – | – |
| CN1CCN(CCCNc2ccc3c(c2)/C(=C2/CCc4ccc(NCCCN5CCN(C)CC5)cc42)CC3)CC1 | – | 0 | – | – | 0 | 0 | weak | 0 |
| C[n+]1ccc(-c2ccc3c(c2)CC/C3=C2/CCc3cc(-c4cc[n+](C)cc4)ccc32)cc1 | 2 | 28 | 17 | yes | 30 | 3 | – | 19 |
